Legend:
[1] = test system: mouse lung carcinoma cell line (3LL cells) and mouse pancreatic cancer cell line (PANC02 cells); assay: Inhibition of macropinocytosis in cancer cells (TMR-dextran uptake); format: cell-based; conditions: in words, 3LL and PANC02 cells
Protocol: Therefore, this Pharmacological Test evaluated the inhibitory effect of the compounds of the present invention on macropinocytosis in a mouse lung carcinoma cell line (3LL cells) and a mouse pancreatic cancer cell line (PANC02 cells) as a target. Specifically, 150 μL of mouse lung carcinoma cell line (3LL) or mouse pancreatic cancer cell line (PANC02) (4×10^4 cells) was seeded on the glass portion of fibronectin-coated glass-bottom culture dishes. After 16-hour culture at 37° C., the medium was changed to DMEM (serum free), and cultured for another 24 hours to allow the cells to be serum-starved. Subsequently, the medium was changed to 2 mL of serum-free medium containing DMSO alone (control) or DMSO in which each test compound was dissolved, followed by culture for 1 hour for pretreatment. The final concentration of DMSO was adjusted to 0.2 mass %.
DMSO alone (control) or DMSO in which a predetermined concentration of each test compound was dissolved was added in the same manner as above to TMR-dextran (final concentration: 500 μg/mL)-containing DMEM (with 10 mass % FBS), and the thus-obtained medium (180 μL) was added to the cancer cells pretreated as above, followed by incubation at 37° C. for 1 hour. […] The macropinocytosis activity was measured based on the number of TMR-dextran spots per cell. […]

[2] = test system: CCL21-stimulated T cells (mouse spleen cells); assay: T lymphocyte migration towards CCL21 (Transwell); format: cell-based; conditions: in words, 2-hour incubation
Protocol: In view of the above, the effect of RT-22 (Production Example 1A), which serves as a representative of the compounds of the present invention, on the lymphocyte migration was studied. Specifically, mouse spleen cells (1×10^7 cells/mL) were first precultured at 37° C. for 1 hour in 0.5 mass % BSA-containing RPMI-1640 (Transwell medium), to which DMSO alone or DMSO in which a predetermined concentration of each test compound was dissolved was added. Subsequently, 500 μL of Transwell medium containing 300 ng/mL of CCL21 and DMSO in which a predetermined concentration of each test compound was dissolved was added to a 24-well plate. Then, Transwell inserts (Corning, pore size: 5 μm) were placed in the wells, into which the precultured mouse spleen cells were loaded at 1×10^6 cells/100 μL.
After 2-hour incubation at 37° C., the cells that migrated to the lower chamber were collected and stained with PE-labeled anti-Thy1.2 antibody (53-2-1, BD Pharmingen) and APC-labeled anti-B220 antibody (RA-6B2, eBioscience). The percentage (%) of the migrated cells was calculated by dividing the number of Thy1.2^+ cells (T cells) in the lower chamber by the number of Thy1.2^+ cells (T cells) placed into the Transwell inserts.

[3] = test system: mouse lung carcinoma cell line (3LL); assay: Tumor growth of subcutaneously transplanted mouse lung carcinoma cells; format: in vivo, C57BL/6 mice
Protocol: The mouse lung carcinoma cell line (3LL) was suspended in 200 μL of PBS(−), and transplanted (5×10^5 cells per mouse) into the dorsal subcutaneous region of C57BL/6 mice (6 weeks old). To a 6:1:1 mixture of PBS/Cremophor EL/ethanol, RT-22 as a representative of the compounds of the present invention was added to a concentration of 0.25 mg/300 μL, and the resulting mixture was loaded into an SMP-300 micro infusion pump (iPRECIO), which was subcutaneously implanted on the previous day of the transplantation, to perform continuous intravenous administration (n=5 mice). The control group was only administered with an equivalent volume of a solvent (a 6:1:1 mixture of PBS/Cremophor EL/ethanol) (n=6 mice). The transverse and longitudinal diameters of the tumor mass were measured over time for a period of 4 weeks from the start of administration, and the tumor volume (V) was calculated according to the formula: V=π/6x√((transverse diameter×longitudinal diameter)^3).

In the case of COC(=O)c1cc(S(=O)(=O)N2CCCC2)cn1CC(=O)c1ccc(-c2cccc(C(F)(F)F)c2)cc1 [RT-22, methyl 1-(2-oxo-2-(3′-(trifluoromethyl)-[1,1′-biphenyl]-4-yl)ethyl)-4-(pyrrolidin-1-yl-sulfonyl)-1H-pyrrole-2-carboxylate], the “macropinocytosis activity in cancer cells” value [1] is reported as “inhibitory effect on macropinocytosis activity”, the “migration of CCL21-stimulated T cells” value [2] is reported as “no effect” and the “tumor size as % of that of the control group” value ([3]; 3LL s.c. in C57BL/6 mice, continuous intravenous administration, 0.25 mg/300 μL, day 26 to day 29) is reported as 64 to 69%. For the same compound, the “tumor growth inhibition compared with TBOPP” value ([3]; in words) was “more effective in inhibiting tumor growth than TBOPP”.

Source: patent publication US20220017486A1, “DOCK1-INHIBITING COMPOUND AND USE THEREOF” (KYUSHU UNIVERSITY, NATIONAL UNIVERSITY CORPORATION, priority 2018, published 2022)
